pEC50, pIC50: −log10 of the molar value. Read-outs that look alike come from different tables or passages of the source.
Legend:
[1] = biological target: Lyn (Homo sapiens (Human), UniProt P07948); details: read-out: Lyn IC50
[2] = test system: Ramos; assay: CellTiter-Glo proliferation/viability assay; type: cell-based, human; details: read-out: Ramos EC50
[3] = biological target: Src (Homo sapiens (Human), UniProt P12931); details: read-out: Src IC50
[4] = test system: DoHH2; assay: CellTiter-Glo proliferation/viability assay; type: cell-based, human; details: 48 hrs, read-out: DoHH2 EC50
[5] = biological target: BTK (Homo sapiens (Human), UniProt Q06187)
BTK, sequence (Q06187 whole entry): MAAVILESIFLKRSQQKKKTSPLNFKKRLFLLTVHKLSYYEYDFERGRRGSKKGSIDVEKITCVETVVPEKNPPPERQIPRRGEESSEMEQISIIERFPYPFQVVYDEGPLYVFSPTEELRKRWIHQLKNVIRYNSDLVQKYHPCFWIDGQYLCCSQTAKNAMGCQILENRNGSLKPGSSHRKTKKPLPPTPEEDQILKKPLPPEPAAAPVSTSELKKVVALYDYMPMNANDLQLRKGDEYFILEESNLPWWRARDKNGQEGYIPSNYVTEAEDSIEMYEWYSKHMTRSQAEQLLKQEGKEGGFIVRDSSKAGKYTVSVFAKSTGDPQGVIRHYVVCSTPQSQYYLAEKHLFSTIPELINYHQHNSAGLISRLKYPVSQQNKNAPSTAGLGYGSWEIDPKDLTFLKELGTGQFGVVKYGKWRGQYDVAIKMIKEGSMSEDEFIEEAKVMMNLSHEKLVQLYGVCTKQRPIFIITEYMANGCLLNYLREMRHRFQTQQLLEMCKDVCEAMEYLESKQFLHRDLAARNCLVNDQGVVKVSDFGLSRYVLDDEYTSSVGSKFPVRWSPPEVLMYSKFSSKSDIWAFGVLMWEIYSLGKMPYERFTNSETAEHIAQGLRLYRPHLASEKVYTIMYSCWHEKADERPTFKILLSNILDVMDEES

Lyn, sequence (P07948 whole entry): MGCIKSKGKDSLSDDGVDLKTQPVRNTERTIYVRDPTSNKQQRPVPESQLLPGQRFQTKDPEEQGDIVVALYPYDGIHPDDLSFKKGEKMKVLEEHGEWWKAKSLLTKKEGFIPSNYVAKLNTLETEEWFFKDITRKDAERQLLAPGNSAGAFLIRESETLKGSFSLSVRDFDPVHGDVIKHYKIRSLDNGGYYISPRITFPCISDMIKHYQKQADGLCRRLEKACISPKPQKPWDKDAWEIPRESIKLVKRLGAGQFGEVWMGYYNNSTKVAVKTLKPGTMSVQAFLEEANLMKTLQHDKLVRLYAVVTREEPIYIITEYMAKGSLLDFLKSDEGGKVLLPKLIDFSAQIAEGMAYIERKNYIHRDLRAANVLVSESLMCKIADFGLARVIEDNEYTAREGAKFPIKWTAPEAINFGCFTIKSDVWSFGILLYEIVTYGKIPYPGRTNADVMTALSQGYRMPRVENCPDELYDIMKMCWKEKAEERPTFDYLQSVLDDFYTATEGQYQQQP
Src, sequence (P12931 whole entry, looked up): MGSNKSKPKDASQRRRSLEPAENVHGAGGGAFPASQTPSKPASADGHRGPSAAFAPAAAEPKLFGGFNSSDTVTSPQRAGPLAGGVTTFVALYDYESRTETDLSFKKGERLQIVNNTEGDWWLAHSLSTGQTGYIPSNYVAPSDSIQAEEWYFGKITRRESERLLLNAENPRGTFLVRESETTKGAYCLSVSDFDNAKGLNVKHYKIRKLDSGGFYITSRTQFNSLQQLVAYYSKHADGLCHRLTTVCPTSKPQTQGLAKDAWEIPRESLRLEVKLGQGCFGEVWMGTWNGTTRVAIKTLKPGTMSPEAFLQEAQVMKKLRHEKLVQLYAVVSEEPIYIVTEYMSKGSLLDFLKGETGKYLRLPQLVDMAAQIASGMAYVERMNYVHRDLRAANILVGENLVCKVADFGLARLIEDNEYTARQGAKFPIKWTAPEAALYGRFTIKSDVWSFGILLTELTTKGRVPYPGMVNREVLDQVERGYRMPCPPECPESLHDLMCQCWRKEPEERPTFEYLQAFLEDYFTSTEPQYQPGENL

Compound	pIC50 [1]	pEC50 ([2]; 48 hrs)	pIC50 [3]	pEC50 [4]	pIC50 ([5]; read-out: BTK IC50)	pEC50 ([2]; Homo sapiens, Ramos, 48 h)	pEC50 ([4]; Homo sapiens, DOHH-2)	pIC50 [5]	pEC50 ([2]; Homo sapiens, Ramos, 48 hrs)
CCN(CC)CCOc1ccc(Nc2cc3c(cn2)cc(-c2c(F)cccc2F)c(=O)n3C2CCOC2)nc1 (single isomer, unassigned) [Compound 144, (R or S)-7-((5-(2-(diethylamino)ethoxy)pyridin-2-yl)amino)-3-(2,6-difluorophenyl)-1-(tetrahydrofuran-3-yl)-1,6-naphthyridin-2(1H)-one]	> 7.00	5.00 to 6.00	> 7.00	> 6.00	> 7.00				
CCN(CC)CCOc1ccc(Nc2cc3c(cn2)cc(-c2c(Cl)cccc2Cl)c(=O)n3C2CCOC2)nc1 (single isomer, unassigned) [Compound 146, (R or S)-3-(2,6-dichlorophenyl)-7-((5-(2-(diethylamino)ethoxy)pyridin-2-yl)amino)-1-(tetrahydrofuran-3-yl)-1,6-naphthyridin-2(1H)-one]	> 7.00	5.00 to 6.00	> 7.00	> 6.00	> 7.00				
O=c1c(-c2c(Cl)cccc2Cl)cc2cnc(Nc3ccc(F)cn3)cc2n1C1CCOC1 (single isomer, unassigned) [Compound 148, (R or S)-3-(2,6-dichlorophenyl)-7-((5-fluoropyridin-2-yl)amino)-1-(tetrahydrofuran-3-yl)-1,6-naphthyridin-2(1H)-one]	> 7.00	< 5.00	> 7.00	> 6.00	> 7.00				
CCn1c(=O)c(-c2ccccc2)cc2cnc(Nc3ncc(C)o3)cc21 [Compound 9, 1-Ethyl-7-(5-methyl-oxazol-2-ylamino)-3-phenyl-1H-[1,6]naphthyridin-2-one]	< 5.30		< 5.30			< 5.00	5.00 to 6.00	5.30 to 6.00	
CCn1c(=O)c(-c2ccsc2)cc2cnc(Nc3ccc(C)cn3)cc21 [Compound 10, 1-Ethyl-7-(5-methyl-pyridin-2-ylamino)-3-thiophen-3-yl-1H-[1,6]naphthyridin-2-one]	< 5.30		< 5.30				< 5.00	5.30 to 6.00	< 5.00
CCn1c(=O)c(-c2cccs2)cc2cnc(Nc3ccc(C)cn3)cc21 [Compound 11, 1-Ethyl-7-(5-methyl-pyridin-2-ylamino)-3-thiophen-2-yl-1H-[1,6]naphthyridin-2-one]	< 5.30		< 5.30				< 5.00	6.00 to 7.00	< 5.00
CCn1c(=O)c(C2CCCCC2)cc2cnc(Nc3ccc(C)cn3)cc21 [Compound 12, 3-Cyclohexyl-1-ethyl-7-(5-methyl-pyridin-2-ylamino)-1H-[1,6]naphthyridin-2-one]	< 5.30		< 5.30		< 5.30		< 5.00		< 5.00
CCn1c(=O)c(C(C)C)cc2cnc(Nc3ccc(C)cn3)cc21 [Compound 13, 1-Ethyl-3-isopropyl-7-(5-methyl-pyridin-2-ylamino)-1H-[1,6]naphthyridin-2-one]	< 5.30		< 5.30			5.00 to 6.00	5.00 to 6.00	5.30 to 6.00	
CCn1c(=O)c(CC(C)C)cc2cnc(Nc3ccc(C)cn3)cc21 [Compound 20, 1-Ethyl-3-isobutyl-7-(5-methyl-pyridin-2-ylamino)-1H-[1,6]naphth yridin-2-one]	< 5.30		< 5.30			< 5.00	< 5.00	6.00 to 7.00	
CCn1c(=O)c(-c2ccc(F)cc2)cc2cnc(Nc3ccc(C)cn3)cc21 [Compound 26]	< 5.30		< 5.30		< 5.30		< 5.00		< 5.00
CCn1c(=O)c(-c2cccc(F)c2)cc2cnc(Nc3ccc(C)cn3)cc21 [Compound 29, 1-ethyl-3-(3-fluorophenyl)-7-(5-methylpyridin-2-ylamino)-1,6-naphthyridin-2(1H)-one]	< 5.30		< 5.30		< 5.30		< 5.00		< 5.00
CCN(CC)CCOc1ccc(Nc2cc3c(cn2)cc(C(C)C)c(=O)n3C2CC2)nc1 [Compound 36, 1-Cyclopropyl-7-[5-(2-diethylamino-ethoxy)-pyridin-2-ylamino]-3-isopropyl-1H-[1,6]naphthyridin-2-one]						< 5.00	5.00 to 6.00		
CCOC(=O)/C=C/c1cc2cnc(Nc3ccc(C)cn3)cc2n(CC)c1=O [Compound 38]	< 5.30		< 5.30		< 5.30		< 5.00		< 5.00
CCn1c(=O)c(-c2c(Cl)cccc2Cl)cc2cnc(Nc3ccc(F)cn3)cc21 [Compound 76, 3-(2,6-dichlorophenyl)-1-ethyl-7-((5-fluoropyridin-2-yl)amino)-1,6-naphthyridin-2(1H)-one]	> 7.00		> 7.00			< 5.00	> 6.00	6.00 to 7.00	
O=c1c(-c2c(F)cccc2F)cc2cnc(Nc3ccc(F)cn3)cc2n1C1CCOCC1 [Compound 80, 3-(2,6-difluorophenyl)-7-((5-fluoropyridin-2-yl)amino)-1-(tetrahydro-2H-pyran-4-yl)-1,6-naphthyridin-2(1H)-one]	> 7.00		< 5.30			< 5.00	> 6.00		
O=c1c(-c2c(F)cccc2F)cc2cnc(Nc3ccc(F)cn3)cc2n1-c1ccccc1 [Compound 81, 3-(2,6-difluorophenyl)-7-((5-fluoropyridin-2-yl)amino)-1-phenyl-1,6-naphthyridin-2(1H)-one]	> 7.00		> 7.00			< 5.00	5.00 to 6.00		
CCN(CC)CCOc1ccc(Nc2cc3c(cn2)cc(-c2ccccc2)c(=O)n3-c2ccncc2)nc1 [Compound 82, 7-[5-(2-Diethylamino-ethoxy)-pyridin-2-ylamino]-3-phenyl-1-pyridin-4-yl-1H-[1,6]naphthyridin-2-one]	> 7.00		> 7.00				> 6.00	6.00 to 7.00	< 5.00
CCN(CC)CCOc1ccc(Nc2cc3c(cn2)cc(-c2ccccc2)c(=O)n3CC)cc1 [Compound 86]	> 7.00		6.00			< 5.00	5.00 to 6.00		
CCn1c(=O)ccc2cnc(Nc3ccc(C)cn3)cc21 [Compound 87]	< 5.30		< 5.30			5.00 to 6.00	5.00 to 6.00	5.30 to 6.00	
CCn1c(=O)c(Br)cc2cnc(Nc3ccc(C)cn3)cc21 [Compound 88]	< 5.30		> 7.00			> 6.00	> 6.00	6.00 to 7.00	
CCn1c(=O)c(-c2ccccc2)cc2cnc(NC3=NCCO3)cc21 [Compound 90]					< 5.30		< 5.00		< 5.00
CCn1c(=O)c(-c2ccccc2)cc2cnc(NC3=NCCS3)cc21 [Compound 91]					< 5.30		< 5.00		< 5.00
CCN(CC)CCOc1ccc(Nc2cc3c(cn2)cc(-c2c(F)ccc(Cl)c2F)c(=O)n3CC)nc1 [Compound 97, 3-(3-chloro-2,6-difluorophenyl)-7-((5-(2-(diethylamino)ethoxy)pyridin-2-yl)amino)-1-ethyl-1,6-naphthyridin-2(1H)-one]	> 7.00		> 7.00			5.00 to 6.00	> 6.00	6.00 to 7.00	
CCN(CC)CCOc1ccc(Nc2cc3c(cn2)cc(-c2c(Cl)cccc2OC)c(=O)n3CC)nc1 [Compound 108, 3-(2-chloro-6-methoxyphenyl)-7-((5-(2-(diethylamino)ethoxy)pyridin-2-yl)amino)-1-ethyl-1,6-naphthyridin-2(1H)-one]	> 7.00		> 7.00		> 7.00		> 6.00		< 5.00
CCn1c(=O)c(-c2ccccc2)cc2cnc(Nc3cccnn3)cc21 [Compound 112, 1-ethyl-3-phenyl-7-(pyridazin-3-ylamino)-1,6-naphthyridin-2(1H)-one]	< 5.30		< 5.30			< 5.00	< 5.00	5.30 to 6.00	
CCn1c(=O)c(-c2c(F)cccc2OC)cc2cnc(Nc3ccc(N(C)C4CCN(C)CC4)cn3)cc21 [Compound 118, 1-ethyl-3-(2-fluoro-6-methoxyphenyl)-7-((5-(methyl(1-methylpiperidin-4-yl)amino)pyridin-2-yl)amino)-1,6-naphthyridin-2(1H)-one]	> 7.00		> 7.00		> 7.00	5.00 to 6.00	> 6.00		
CCn1c(=O)c(-c2cc(OC)ccc2F)cc2cnc(Nc3ccc(N(C)C4CCN(C)CC4)cn3)cc21 [Compound 119, 1-ethyl-3-(2-fluoro-5-methoxyphenyl)-7-((5-(methyl(1-methylpiperidin-4-yl)amino)pyridin-2-yl)amino)-1,6-naphthyridin-2(1H)-one]							> 6.00	6.00 to 7.00	5.00 to 6.00
CCn1c(=O)c(-c2c(Cl)cccc2Cl)cc2cnc(Nc3ccc(N(C)C4CCN(C)CC4)cn3)cc21 [Compound 121, 3-(2,6-dichlorophenyl)-1-ethyl-7-((5-(methyl(1-methylpiperidin-4-yl)amino)pyridin-2-yl)amino)-1,6-naphthyridin-2(1H)-one]	> 7.00		> 7.00		> 7.00	5.00 to 6.00	> 6.00		
CCn1c(=O)c(-c2c(O)cccc2Cl)cc2cnc(Nc3ccc(N(C)C4CCN(C)CC4)cn3)cc21 [Compound 122, 3-(2-chloro-6-hydroxyphenyl)-1-ethyl-7-((5-(methyl(1-methylpiperidin-4-yl)amino)pyridin-2-yl)amino)-1,6-naphthyridin-2(1H)-one]	> 7.00		> 7.00		> 7.00		> 6.00		5.00 to 6.00
